# Source: the supplement of paper PMC10307832
# Assays:
# Assay in all cases: relative viability (nuclei count vs DMSO), 5 days (fraction); higher = more cells survive
# NCI-H1792 = tested on: NCI-H1792
# Procedure, shortened: (§1)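 Relative viability equals treated-well nuclei counts divided by vehicle-well nuclei counts. Counts came from 4× images of lung cancer cell lines grown in 1536-well plates for 5 days after pin-tool dosing on the day after seeding. Dosing used one drug alone or a fixed anchor-drug dose plus five library-drug doses (not always all listed) in √10 steps, and values are medians of duplicate plates.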
# NCI-H1734 = tested on: NCI-H1734
# Procedure, shortened: as §1
# HCC-366 = tested on: HCC-366
# Procedure, shortened: as §1
# NCI-H2087 = tested on: NCI-H2087
# Procedure, shortened: as §1
# NCI-H661 = tested on: NCI-H661
# Procedure, shortened: as §1
# BEN = tested on: BEN
# Procedure, shortened: as §1
# NCI-H2009 = tested on: NCI-H2009
# Procedure, shortened: as §1
# SK-LU-1 = tested on: SK-LU-1
# Procedure, shortened: as §1
# NCI-H596 = tested on: NCI-H596
# Procedure, shortened: as §1
# HARA = tested on: HARA
# Procedure, shortened: as §1
# LC-2-ad = tested on: LC-2-ad
# Procedure, shortened: as §1
# NCI-H1437 = tested on: NCI-H1437
# Procedure, shortened: as §1
# NCI-H1355 = tested on: NCI-H1355
# Procedure, shortened: as §1
# LOU-NH91 = tested on: LOU-NH91
# Procedure, shortened: as §1
# NCI-H2228 = tested on: NCI-H2228
# Procedure, shortened: as §1
# HCC-827 = tested on: HCC-827
# Procedure, shortened: as §1
# EKVX = tested on: EKVX
# Procedure, shortened: as §1
# NCI-H647 = tested on: NCI-H647
# Procedure, shortened: as §1
# NCI-H2405 = tested on: NCI-H2405
# Procedure, shortened: as §1
smiles,measurement,setting,value
CC1(C)CCC(c2ccc(Cl)cc2)=C(CN2CCN(c3ccc(C(=O)NS(=O)(=O)c4ccc(N[C@H](CCN5CCOCC5)CSc5ccccc5)c(S(=O)(=O)C(F)(F)F)c4)cc3)CC2)C1 [Navitoclax] + CC(C)C[C@H](NC(=O)[C@H](Cc1ccccc1)NC(=O)c1cnccn1)B(O)O [Bortezomib] (partner 0.002 µM),relative viability,NCI-H1792; first compound 0.005 µM,0.976
same,relative viability,NCI-H1792; first compound 0.01581 µM,1.01
same,relative viability,NCI-H1792; first compound 0.05 µM,0.995
same,relative viability,NCI-H1792; first compound 0.1581 µM,0.964
same,relative viability,NCI-H1792; first compound 0.5 µM,0.934
same,relative viability,NCI-H1734; first compound 0.005 µM,1.05
same,relative viability,NCI-H1734; first compound 0.01581 µM,1.12
same,relative viability,NCI-H1734; first compound 0.1581 µM,0.899
same,relative viability,NCI-H1734; first compound 0.5 µM,1.02
same,relative viability,HCC-366; first compound 0.005 µM,1
same,relative viability,HCC-366; first compound 0.01581 µM,1.06
same,relative viability,HCC-366; first compound 0.05 µM,0.539
same,relative viability,HCC-366; first compound 0.1581 µM,0.974
same,relative viability,HCC-366; first compound 0.5 µM,1.04
same,relative viability,NCI-H2087; first compound 0.005 µM,0.905
same,relative viability,NCI-H2087; first compound 0.01581 µM,0.979
same,relative viability,NCI-H2087; first compound 0.05 µM,0.504
same,relative viability,NCI-H2087; first compound 0.1581 µM,0.612
same,relative viability,NCI-H2087; first compound 0.5 µM,0.772
same,relative viability,NCI-H661; first compound 0.005 µM,0.844
same,relative viability,NCI-H661; first compound 0.01581 µM,0.873
same,relative viability,NCI-H661; first compound 0.05 µM,0.785
same,relative viability,NCI-H661; first compound 0.1581 µM,0.827
same,relative viability,NCI-H661; first compound 0.5 µM,0.668
same,relative viability,BEN; first compound 0.005 µM,0.826
same,relative viability,BEN; first compound 0.01581 µM,0.807
same,relative viability,BEN; first compound 0.05 µM,0.664
same,relative viability,BEN; first compound 0.1581 µM,0.789
same,relative viability,BEN; first compound 0.5 µM,0.339
same,relative viability,NCI-H2009; first compound 0.005 µM,0.958
same,relative viability,NCI-H2009; first compound 0.01581 µM,1.19
same,relative viability,NCI-H2009; first compound 0.05 µM,0.953
same,relative viability,NCI-H2009; first compound 0.1581 µM,0.979
same,relative viability,NCI-H2009; first compound 0.5 µM,1.02
same,relative viability,SK-LU-1; first compound 0.005 µM,1.19
same,relative viability,SK-LU-1; first compound 0.01581 µM,1.12
same,relative viability,SK-LU-1; first compound 0.05 µM,0.477
same,relative viability,SK-LU-1; first compound 0.1581 µM,1.09
same,relative viability,SK-LU-1; first compound 0.5 µM,0.961
same,relative viability,NCI-H596; first compound 0.005 µM,1.22
same,relative viability,NCI-H596; first compound 0.01581 µM,0.81
same,relative viability,NCI-H596; first compound 0.05 µM,0.904
same,relative viability,NCI-H596; first compound 0.1581 µM,1.22
same,relative viability,NCI-H596; first compound 0.5 µM,0.914
same,relative viability,HARA; first compound 0.005 µM,1.04
same,relative viability,HARA; first compound 0.01581 µM,1.11
same,relative viability,HARA; first compound 0.05 µM,0.643
same,relative viability,HARA; first compound 0.1581 µM,1.08
same,relative viability,HARA; first compound 0.5 µM,1.18
same,relative viability,LC-2-ad; first compound 0.005 µM,0.988
same,relative viability,LC-2-ad; first compound 0.01581 µM,1.1
same,relative viability,LC-2-ad; first compound 0.05 µM,0.941
same,relative viability,LC-2-ad; first compound 0.1581 µM,1.01
same,relative viability,LC-2-ad; first compound 0.5 µM,1.06
same,relative viability,NCI-H1437; first compound 0.005 µM,0.503
same,relative viability,NCI-H1437; first compound 0.01581 µM,0.589
same,relative viability,NCI-H1437; first compound 0.05 µM,0.589
same,relative viability,NCI-H1437; first compound 0.1581 µM,0.495
same,relative viability,NCI-H1437; first compound 0.5 µM,0.47
same,relative viability,NCI-H1355; first compound 0.005 µM,1.02
same,relative viability,NCI-H1355; first compound 0.01581 µM,1.24
same,relative viability,NCI-H1355; first compound 0.05 µM,1.06
same,relative viability,NCI-H1355; first compound 0.1581 µM,1.15
same,relative viability,NCI-H1355; first compound 0.5 µM,1.14
same,relative viability,LOU-NH91; first compound 0.005 µM,0.418
same,relative viability,LOU-NH91; first compound 0.01581 µM,0.485
same,relative viability,LOU-NH91; first compound 0.05 µM,0.391
same,relative viability,LOU-NH91; first compound 0.1581 µM,0.449
same,relative viability,LOU-NH91; first compound 0.5 µM,0.339
same,relative viability,NCI-H2228; first compound 0.005 µM,0.849
same,relative viability,NCI-H2228; first compound 0.01581 µM,1.33
same,relative viability,NCI-H2228; first compound 0.05 µM,0.726
same,relative viability,NCI-H2228; first compound 0.1581 µM,0.804
same,relative viability,NCI-H2228; first compound 0.5 µM,0.992
same,relative viability,HCC-827; first compound 0.005 µM,1.02
same,relative viability,HCC-827; first compound 0.01581 µM,1.21
same,relative viability,HCC-827; first compound 0.05 µM,0.87
same,relative viability,HCC-827; first compound 0.1581 µM,1.08
same,relative viability,HCC-827; first compound 0.5 µM,0.999
same,relative viability,EKVX; first compound 0.005 µM,1.01
same,relative viability,EKVX; first compound 0.01581 µM,1.01
same,relative viability,EKVX; first compound 0.05 µM,0.68
same,relative viability,EKVX; first compound 0.1581 µM,1.04
same,relative viability,EKVX; first compound 0.5 µM,0.963
same,relative viability,NCI-H647; first compound 0.005 µM,0.686
same,relative viability,NCI-H647; first compound 0.01581 µM,1.22
same,relative viability,NCI-H647; first compound 0.05 µM,0.866
same,relative viability,NCI-H647; first compound 0.1581 µM,0.761
same,relative viability,NCI-H647; first compound 0.5 µM,0.863
same,relative viability,NCI-H2405; first compound 0.005 µM,0.975
same,relative viability,NCI-H2405; first compound 0.01581 µM,1.09
same,relative viability,NCI-H2405; first compound 0.05 µM,0.816
same,relative viability,NCI-H2405; first compound 0.1581 µM,0.974
same,relative viability,NCI-H2405; first compound 0.5 µM,0.906
Oc1nc(-c2ccc(C(F)(F)F)cc2)nc2c1CSCC2 [XAV939] + CC(C)C[C@H](NC(=O)[C@H](Cc1ccccc1)NC(=O)c1cnccn1)B(O)O [Bortezomib] (partner 0.002 µM),relative viability,NCI-H1792; first compound 0.08 µM,0.945
same,relative viability,NCI-H1792; first compound 0.253 µM,0.943
same,relative viability,NCI-H1792; first compound 0.8 µM,0.973
same,relative viability,NCI-H1792; first compound 2.53 µM,0.869
same,relative viability,NCI-H1734; first compound 0.08 µM,1.04
same,relative viability,NCI-H1734; first compound 0.253 µM,0.907
same,relative viability,NCI-H1734; first compound 0.8 µM,0.709
same,relative viability,NCI-H1734; first compound 2.53 µM,0.86
same,relative viability,HCC-366; first compound 0.08 µM,1.12
same,relative viability,HCC-366; first compound 0.253 µM,0.991
same,relative viability,HCC-366; first compound 0.8 µM,1.01
same,relative viability,HCC-366; first compound 2.53 µM,1.05
same,relative viability,NCI-H2087; first compound 0.08 µM,0.864
same,relative viability,NCI-H2087; first compound 0.253 µM,0.595
same,relative viability,NCI-H2087; first compound 0.8 µM,0.938
same,relative viability,NCI-H2087; first compound 2.53 µM,0.763
same,relative viability,NCI-H661; first compound 0.08 µM,0.866
same,relative viability,NCI-H661; first compound 0.253 µM,0.707
same,relative viability,NCI-H661; first compound 0.8 µM,0.95
same,relative viability,NCI-H661; first compound 2.53 µM,0.495
same,relative viability,BEN; first compound 0.08 µM,0.709
same,relative viability,BEN; first compound 0.253 µM,0.733
same,relative viability,BEN; first compound 0.8 µM,0.559
same,relative viability,NCI-H2009; first compound 0.08 µM,1.17
same,relative viability,NCI-H2009; first compound 0.253 µM,0.901
same,relative viability,NCI-H2009; first compound 0.8 µM,0.936
same,relative viability,NCI-H2009; first compound 2.53 µM,0.915
same,relative viability,SK-LU-1; first compound 0.08 µM,1.16
same,relative viability,SK-LU-1; first compound 0.253 µM,1.13
same,relative viability,SK-LU-1; first compound 0.8 µM,1.05
same,relative viability,SK-LU-1; first compound 2.53 µM,1.39
same,relative viability,NCI-H596; first compound 0.08 µM,1.11
same,relative viability,NCI-H596; first compound 0.253 µM,1.1
same,relative viability,NCI-H596; first compound 0.8 µM,1.09
same,relative viability,NCI-H596; first compound 2.53 µM,1.3
same,relative viability,HARA; first compound 0.08 µM,1.35
same,relative viability,HARA; first compound 0.253 µM,1
same,relative viability,HARA; first compound 0.8 µM,1.12
same,relative viability,HARA; first compound 2.53 µM,1
same,relative viability,LC-2-ad; first compound 0.08 µM,1.01
same,relative viability,LC-2-ad; first compound 0.253 µM,0.919
same,relative viability,LC-2-ad; first compound 0.8 µM,0.984
same,relative viability,LC-2-ad; first compound 2.53 µM,0.887
same,relative viability,NCI-H1437; first compound 0.08 µM,0.641
same,relative viability,NCI-H1437; first compound 0.253 µM,0.548
same,relative viability,NCI-H1437; first compound 0.8 µM,0.512
same,relative viability,NCI-H1437; first compound 2.53 µM,0.376
same,relative viability,NCI-H1355; first compound 0.08 µM,1.17
same,relative viability,NCI-H1355; first compound 0.253 µM,1.06
same,relative viability,NCI-H1355; first compound 0.8 µM,1.21
same,relative viability,NCI-H1355; first compound 2.53 µM,0.81
same,relative viability,LOU-NH91; first compound 0.08 µM,0.438
same,relative viability,LOU-NH91; first compound 0.253 µM,0.464
same,relative viability,LOU-NH91; first compound 0.8 µM,0.49
same,relative viability,LOU-NH91; first compound 2.53 µM,0.415
same,relative viability,NCI-H2228; first compound 0.08 µM,1.31
same,relative viability,NCI-H2228; first compound 0.253 µM,0.711
same,relative viability,NCI-H2228; first compound 0.8 µM,1.01
same,relative viability,NCI-H2228; first compound 2.53 µM,0.861
same,relative viability,HCC-827; first compound 0.08 µM,1.03
same,relative viability,HCC-827; first compound 0.253 µM,0.868
same,relative viability,HCC-827; first compound 0.8 µM,1.07
same,relative viability,HCC-827; first compound 2.53 µM,1.09
same,relative viability,EKVX; first compound 0.08 µM,1.12
same,relative viability,EKVX; first compound 0.253 µM,0.882
same,relative viability,EKVX; first compound 0.8 µM,0.773
same,relative viability,EKVX; first compound 2.53 µM,0.573
same,relative viability,NCI-H647; first compound 0.08 µM,1.16
same,relative viability,NCI-H647; first compound 0.253 µM,0.747
same,relative viability,NCI-H647; first compound 0.8 µM,0.81
same,relative viability,NCI-H647; first compound 2.53 µM,0.988
same,relative viability,NCI-H2405; first compound 0.08 µM,1.04
same,relative viability,NCI-H2405; first compound 0.253 µM,0.719
same,relative viability,NCI-H2405; first compound 0.8 µM,0.893
same,relative viability,NCI-H2405; first compound 2.53 µM,0.959
